Experimental data as given in patent publication US8138168B1 (Takeda Pharmaceutical Company Limited, priority 2007, dated 2012).
pIC50: −log10 of the molar value.

Target: T1, Recombinant human renin (Homo sapiens, UniProt P00797)
T1 construct: isolate the active form (residues 67-406); made in house; host or cells: FreeStyle 293-F cells (transient expression of pcDNA3.1(+)/hREN)
T1 sequence (P00797 67-406): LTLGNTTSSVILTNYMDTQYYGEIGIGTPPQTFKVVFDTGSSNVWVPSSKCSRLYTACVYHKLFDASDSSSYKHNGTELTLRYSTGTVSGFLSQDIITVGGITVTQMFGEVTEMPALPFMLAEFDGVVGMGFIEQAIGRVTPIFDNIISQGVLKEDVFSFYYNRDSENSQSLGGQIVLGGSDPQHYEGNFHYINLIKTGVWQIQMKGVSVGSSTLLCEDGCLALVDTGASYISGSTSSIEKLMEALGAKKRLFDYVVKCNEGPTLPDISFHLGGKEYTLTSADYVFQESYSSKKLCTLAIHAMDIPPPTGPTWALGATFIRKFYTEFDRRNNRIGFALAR
Experiment: In vitro enzymatic activity assay of renin inhibitors (fluorogenic peptide substrate)
Format: biochemical
Details: read-out: IC50 of Exemplified Compounds Against Renin
In short: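 Enzyme: recombinant human renin, 3 nM final, 10 min compound pre-incubation at 37 °C; buffer 50 mM Hepes pH 7.4 with 0.1 mg/mL BSA or extra 2% BSA; 5% DMSO.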

pIC50 | Compound
> 7.00 | COCCCn1c([C@@H]2CCCN(C(=O)C[C@H](N)Cc3ccc(-c4ccc(OC)cc4)cc3)C2)nc2c(F)cccc21 [Compound 492, (R)-3-amino-1-((R)-3-(4-fluoro-1-(3-methoxypropyl)-1H-benzo[d]imidazol-2-yl)piperidin-1-yl)-4-(4′-methoxybiphenyl-4-yl)butan-1-one]
< 6.00 | O=C(Nc1ccccc1-c1ccccc1)N1CCCC(c2nc3ccccc3[nH]2)C1 (stereo not drawn) [Compound 16, 3-(1H-benzo[d]imidazol-2-yl)-N-(biphenyl-2-yl)piperidine-1-carboxamide]
> 7.00 | COCCCn1c([C@@H]2CCCN(C(=O)C[C@H](N)Cc3ccc(-n4c(=O)n(C)c5ccccc54)cc3)C2)nc2ccccc21 [Compound 220, 1-(4-((R)-2-amino-4-((R)-3-(1-(3-methoxypropyl)-1H-benzo[d]imidazol-2-yl)piperidin-1-yl)-4-oxobutyl)phenyl)-3-methyl-1H-benzo[d]imidazol-2(3H)-one]
< 6.00 | N[C@@H](CC(=O)N1CCCC(c2nc3ccccc3[nH]2)C1)Cc1ccc(Cl)c(Cl)c1 (stereo partly drawn) [Compound 36, (3R)-1-(3-(1H-benzo[d]imidazol-2-yl)piperidin-1-yl)-3-amino-4-(3,4-dichlorophenyl)butan-1-one]
< 6.00 | N[C@@H](CC(=O)N1CCC[C@@H](c2nc3ccccc3[nH]2)C1)Cc1ccc(-c2ccccc2)cc1 [Compound 71, (R)-1-((R)-3-(1H-benzo[d]imidazol-2-yl)piperidin-1-yl)-3-amino-4-(biphenyl-4-yl)butan-1-one]
< 6.00 | COCCCn1c([C@@H]2CCCN(C(=O)C[C@H](N)CNC(=O)C3CCCCC3)C2)nc2ccccc21 [Compound 326, N-((S)-2-amino-4-((R)-3-(1-(3-methoxypropyl)-1H-benzo[d]imidazol-2-yl)piperidin-1-yl)-4-oxobutyl)cyclohexanecarboxamide]
> 7.00 | COCCCn1c([C@@H]2CCCN(C(=O)C[C@H](N)Cc3ccc(-c4ccc(C(=O)NCCOC)c(F)c4)cc3)C2)nc2ccccc21 [Compound 191, 4′-((R)-2-Amino-4-((R)-3-(1-(3-methoxypropyl)-1H-benzoldlimidazol-2-yl)piperidin-1-yl)-4-oxobutyl)-3-fluoro-N-(2-methoxyethyl)biphenyl-4-carboxamide]
6.00 to 7.00 | COCCCn1c([C@@H]2CCCN(C(=O)C[C@H](N)CNS(=O)(=O)c3cccc(OC)c3)C2)nc2ccccc21 [Compound 315, N-((S)-2-amino-4-((R)-3-(1-(3-methoxypropyl)-1H-benzo[d]imidazol-2-yl)piperidin-1-yl)-4-oxobutyl)-3-methoxybenzenesulfonamide]
> 7.00 | COCCCn1c([C@@H]2CCCN(C(=O)C[C@H](N)Cc3ccc(-c4csc(C(C)C)n4)cc3)C2)nc2ccccc21 [Compound 202, (R)-3-amino-4-(4-(2-isopropylthiazol-4-yl)phenyl)-1-((R)-3-(1-(3-methoxypropyl)-1H-benzo[d]imidazol-2-yl)piperidin-1-yl)butan-1-one]
6.00 to 7.00 | COCCCn1c([C@@H]2CCCN(C(=O)[C@@H]3CN(S(=O)(=O)c4ccc(OC)cc4)C[C@H]3N)C2)nc2ccccc21 [Compound 369, ((3R,4S)-4-amino-1-(4-methoxyphenylsulfonyl)pyrrolidin-3-yl)((R)-3-(1-(3-methoxypropyl)-1H-benzo[d]imidazol-2-yl)piperidin-1-yl)methanone]
< 6.00 | N[C@@H](CC(=O)N1CCCC(c2nc3ccccc3[nH]2)C1)Cc1ccc([N+](=O)[O-])cc1 (stereo partly drawn) [Compound 39, (3R)-1-(3-(1H-benzo[d]imidazol-2-yl)piperidin-1-yl)-3-amino-4-(4-nitrophenyl)butan-1-one]
6.00 to 7.00 | COCCCn1c([C@@H]2CCCN(C(=O)C[C@H](N)CNC(=O)c3ccc(-c4cccc([N+](=O)[O-])c4)o3)C2)nc2ccccc21 [Compound 297, N-((S)-2-amino-4-((R)-3-(1-(3-methoxypropyl)-1H-benzo[d]imidazol-2-yl)piperidin-1-yl)-4-oxobutyl)-5-(3-nitrophenyl)furan-2-carboxamide]
> 7.00 | COCCCn1c([C@@H]2CCCN(C(=O)C[C@H](N)CNC(=O)c3ccc(-c4ccccc4)s3)C2)nc2ccccc21 [Compound 252, N-((S)-2-amino-4-((R)-3-(1-(3-methoxypropyl)-1H-benzo[d]imidazol-2-yl)piperidin-1-yl)-4-oxobutyl)-5-phenylthiophene-2-carboxamide]
> 7.00 | COCCCn1c([C@@H]2CCCN(C(=O)C[C@H](N)Cc3ccc(-c4ccc5c(c4)OC(F)(F)O5)cc3)C2)nc2c(F)cccc21 [Compound 454, (R)-3-amino-4-(4-(2,2-difluorobenzo[d][1,3]dioxol-5-yl)phenyl)-1-((R)-3-(4-fluoro-1-(3-methoxypropyl)-1H-benzo[d]imidazol-2-yl)piperidin-1-yl)butan-1-one]
6.00 to 7.00 | COCCCn1c([C@@H]2CCCN(C(=O)C[C@H](N)CNC(=O)Nc3ccccc3OC(F)(F)F)C2)nc2ccccc21 [Compound 265, 1-((S)-2-amino-4-((R)-3-(1-(3-methoxypropyl)-1H-benzo[d]imidazol-2-yl)piperidin-1-yl)-4-oxobutyl)-3-(2-(trifluoromethoxy)phenyl)urea]
< 6.00 | COCCCn1c([C@@H]2CCCN(C(=O)C[C@H](N)Cc3ccc4ccccc4c3)C2)nc2ccc(Cl)nc21 [Compound 502, (3R)-3-amino-1-(3-(5-chloro-3-(3-methoxypropyl)-3H-imidazo[4,5-b]pyridin-2-yl)piperidin-1-yl)-4-(naphthalen-2-yl)butan-1-one]
> 7.00 | COCCCn1c([C@@H]2CCCN(C(=O)C[C@H](N)Cc3ccc(-c4ccc5occc5c4)cc3)C2)nc2c(C)cccc21 [Compound 494, (R)-3-amino-4-(4-(benzofuran-5-yl)phenyl)-1-((R)-3-(1-(3-methoxypropyl)-4-methyl-1H-benzo[d]imidazol-2-yl)piperidin-1-yl)butan-1-one]
6.00 to 7.00 | COCCCn1c([C@@H]2CCCN(C(=O)C[C@H](N)Cc3ccc(-n4ccc(=O)n(C)c4=O)cc3)C2)nc2ccccc21 [Compound 210, 1-(4-((R)-2-amino-4-((R)-3-(1-(3-methoxypropyl)-1H-benzo[d]imidazol-2-yl)piperidin-1-yl)-4-oxobutyl)phenyl)-3-methylpyrimidine-2,4(1H,3H)-dione]
6.00 to 7.00 | CC(=O)NCCn1c([C@@H]2CCCN(C(=O)C[C@H](N)Cc3ccc4ccccc4c3)C2)nc2ccccc21 [Compound 239, N-(2-(2-((R)-1((R)-3-amino-4-(naphthalen-2-yl)butanoyl)piperidin-3-yl)-1H-benzo[d]imidazol-1-yl)ethyl)acetamide]
> 7.00 | COCCCn1c([C@@H]2CCCN(C(=O)C[C@H](N)Cc3ccc(-c4ccc(N)nc4)cc3)C2)nc2ccccc21 [Compound 136, (R)-3-amino-4-(4-(6-aminopyridin-3-yl)phenyl)-1-((R)-3-(1-(3-methoxypropyl)-1H-benzo[d]imidazol-2-yl)piperidin-1-yl)butan-1-one]
6.00 to 7.00 | COCCCn1c([C@@H]2CCCN(C(=O)C[C@H](N)CNC(=O)Nc3ccccc3)C2)nc2ccccc21 [Compound 269, 1-((S)-2-amino-4-((R)-3-(1-(3-methoxypropyl)-1H-benzo[d]imidazol-2-yl)piperidin-1-yl)-4-oxobutyl)-3-phenylurea]
> 7.00 | COCCCn1c([C@@H]2CCCN(C(=O)C[C@H](N)Cc3ccc(-c4ccc(C(=O)NC(CO)CO)cc4)cc3)C2)nc2ccccc21 [Compound 184, 4′-((R)-2-amino-4-((R)-3-(1-(3-methoxypropyl)-1H-benzo[d]imidazol-2-yl)piperidin-1-yl)-4-oxobutyl)-N-(1,3-dihydroxypropan-2-yl)biphenyl-4-carboxamide]
6.00 to 7.00 | COCCCn1c([C@@H]2CCCN(C(=O)C[C@H](N)CNC(=O)Nc3ccccc3SC)C2)nc2ccccc21 [Compound 284, 1-((S)-2-amino-4-((R)-3-(1-(3-methoxypropyl)-1H-benzo[d]imidazol-2-yl)piperidin-1-yl)-4-oxobutyl)-3-(2-(methylthio)phenyl)urea]
< 6.00 | COCCCn1c([C@@]2(O)CCCN(C(=O)C[C@H](N)Cc3ccc(Cl)cc3)C2)nc2ccccc21 [Compound 248, (R)-3-amino-4-(4-chlorophenyl)-1((R)-3-hydroxy-3-(1-(3-methoxypropyl)-1H-benzo[d]imidazol-2-yl)piperidin-1-yl)butan-1-one]
> 7.00 | COCCCn1c([C@@H]2CCCN(C(=O)C[C@H](N)Cc3ccc(-c4ccccc4F)cc3)C2)nc2ccccc21 [Compound 160, (R)-3-amino-4-(2′-fluorobiphenyl-4-yl)-1-((R)-3-(1-(3-methoxypropyl)-1H-benzo[d]imidazol-2-yl)piperidin-1-yl)butan-1-one]
< 6.00 | COCCCn1c([C@@H]2CCCN(C(=O)CC(CN)c3ccc(Cl)cc3)C2)nc2ccccc21 (stereo partly drawn) [Compound 93, 4-amino-3-(4-chlorophenyl)-1-((R)-3-(1-(3-methoxypropyl)-1H-benzo[d]imidazol-2-yl)piperidin-1-yl)butan-1-one]
> 7.00 | COCCCn1c([C@@H]2CCCN(C(=O)C[C@H](N)Cc3ccc(-c4ccc5c(c4)OCC(=O)N5)cc3)C2)nc2c(C)cccc21 [Compound 497, 7-(4-((R)-2-amino-4-((R)-3-(1-(3-rnethoxypropyl)-4-methyl-1H-benzo[d]imidazol-2-yl)piperidin-1-yl)-4-oxobutyl)phenyl)-2H-benzo[b][1,4]oxazin-3(4H)-one]
